# Tested on: OPG knockout mice
# Test: Bone morphometry of lumbar trabecular bone and femoral cortical bone in OPG knockout mice given drug in feed
# Type: in vivo, mouse
# Details: 0.03% drug in paste feed, 4 weeks
# Protocol: OPG knockout mice (6 week-old) were divided into 3 groups with 7 mice being prepared for each group. These mice were obtained from CLEA Japan, Inc. and categorized into three groups: control group (Cont), HX531 group (HX), and LE 135 group (LE). LE135 is a compound synthesized as a nuclear receptor […] (RAR) antagonist.
# Paste feed is prepared by adding sterile water into and softening sterilized pellets in a dish. HX531 group and LE135 group were provided with the paste feed in which a corresponding drug was mixed. The amount of feed provided per day was fixed at 3 g per mouse in a solid state. The amount of drugs was calculated at 0.03% to the feed weight. Although the paste feed was exchanged everyday, almost no feed was left in all groups. A drug was administered successively for 4 weeks, and mice were double-labeled with tetracyclines and calceins by an abdominal administration 4 days and 2 days before they were sacrificed.
# While bone morphometry of femur (cortical bone) and lumbar (trabecular bone) was conducted, a histological observation of femur was made. Furthermore, a blood sample was taken before the sacrifice to measure a bone formation marker.
compound,measurement,setting,value
CN1c2ccc([N+](=O)[O-])cc2N=C(c2ccc(C(=O)O)cc2)c2cc3c(cc21)C(C)(C)CCC3(C)C [HX531],bone mass in a lumbar trabecular bone by bone morphometry,FIG. 1,large compared to the mice from the control group or mice provided with LE135
same,trabecula number in a lumbar trabecular bone by bone morphometry,FIG. 2,large compared to the mice from the control group or mice provided with LE135
same,bone resorption rate in a lumbar trabecular bone by bone morphometry,FIG. 7,significantly low
same,osteoclast surface in a lumbar trabecular bone by bone morphometry,FIG. 8,small compared to the mice from the control group
same,rarefaction surface/cortical bone in a femoral cortical bone by bone morphometry,FIG. 11,significantly low compared to the mice from the control group
same,porous surface in a femoral cortical bone by bone morphometry,FIG. 12,small
